Test results: PubChem BioAssay AID248 (DTP/NCI, 2004)
Values joined by “and” are separate entries in the source; they are usually repeats but may differ in a detail not shown here. Equal values may be shown once. Inconclusive results and toxic doses are left out. Rule as the data show it: active = T/C of 150% or more; inactive = T/C below 125%.

System: L1210 leukemia ip in BDF1 mice, survival T/C
Assay: NCI In Vivo Anticancer Drug Screen. Data for tumor model L1210 Leukemia (intraperitoneal) in B6D2F1 (BDF1) mice
Details: endpoint: mean survival time, higher = longer survival
Procedure, shortened: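 Antitumor effect is assessed in tumor-bearing animals. Survival in the compound arm is compared with a vehicle-dosed control arm and expressed as their quotient.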

[1] = dose: 100.0 mg/kg/injection, schedule: Q01DX001 (ip), vehicle: saline
[2] = dose: 200.0 mg/kg/injection, schedule: Q01DX001 (ip), vehicle: saline
[3] = dose: 400.0 mg/kg/injection, schedule: Q01DX001 (ip), vehicle: saline
[4] = dose: 100.0 mg/kg/injection, schedule: Q01DX009 (ip), vehicle: saline
[5] = dose: 200.0 mg/kg/injection, schedule: Q01DX009 (ip), vehicle: saline
[6] = dose: 400.0 mg/kg/injection, schedule: Q01DX009 (ip), vehicle: saline
[7] = dose: 50.0 mg/kg/injection, schedule: Q01DX001 (ip), vehicle: carboxymethylcellulose (CMC)
[8] = dose: 100.0 mg/kg/injection, schedule: Q01DX001 (ip), vehicle: carboxymethylcellulose (CMC)
[9] = dose: 200.0 mg/kg/injection, schedule: Q01DX001 (ip), vehicle: carboxymethylcellulose (CMC)
[10] = dose: 400.0 mg/kg/injection, schedule: Q01DX001 (ip), vehicle: carboxymethylcellulose (CMC)
[11] = dose: 100.0 mg/kg/injection, schedule: Q04DX003 (ip), vehicle: Klucel (hydroxypropylcellulose) (HPC)
[12] = dose: 200.0 mg/kg/injection, schedule: Q04DX003 (ip), vehicle: Klucel (hydroxypropylcellulose) (HPC)
[13] = dose: 100.0 mg/kg/injection, schedule: Q01DX009 (ip), vehicle: saline with Tween-80
[14] = dose: 100.0 mg/kg/injection, schedule: Q04DX002 (ip), vehicle: saline with Tween-80
[15] = dose: 200.0 mg/kg/injection, schedule: Q01DX009 (ip), vehicle: saline with Tween-80
[16] = dose: 200.0 mg/kg/injection, schedule: Q04DX002 (ip), vehicle: saline with Tween-80

Measured: T/C

O=C(Nc1ccc(CCC2=NCCN2)cc1)c1ccc(C(=O)Nc2ccc(CCC3=NCCN3)cc2)cc1
inactive: dose: 30.0 mg/kg/injection, schedule: Q01DX Z (oral), vehicle: saline 101 % of control | dose: 60.0 mg/kg/injection, schedule: Q01DX Z (oral), vehicle: saline 103 % of control | dose: 120.0 mg/kg/injection, schedule: Q01DX Z (oral), vehicle: saline 106 % of control | dose: 240.0 mg/kg/injection, schedule: Q01DX Z (oral), vehicle: saline 97 % of control

O=P(OCCCCl)(OCCCCl)C(Cl)(Cl)Cl
inactive: [1] 102 % of control | [2] 101 % of control | [3] 101 % of control

Nc1ncnc2c1ccn2C1CCC(CO)C1 (configuration not stated)
inactive: dose: 50.0 mg/kg/injection, schedule: Q01DX001 (ip), vehicle: other 108 % of control | dose: 100.0 mg/kg/injection, schedule: Q01DX001 (ip), vehicle: other 103 % of control | dose: 200.0 mg/kg/injection, schedule: Q01DX001 (ip), vehicle: other 101 % of control

CCOC(=O)NC(NC(=O)OCC)C(Cl)Cl
inactive: [1] 101 % of control | [2] 103 % of control | [3] 103 % of control

CNC(=O)NCc1cccnc1
inactive: [4] 111 % of control | [5] 103 % of control | [6] 114 % of control

Cc1ccc2c3c(c(=O)oc2c1)CCCC3
inactive: [7] 96 % of control | [8] 112 % of control | [9] 100 % of control | [10] 108 % of control

c1ccc2cc(C3OCC4(CCCCC4)CO3)ccc2c1
inactive: dose: 100.0 mg/kg/injection, schedule: Q01DX001 (ip), vehicle: Klucel (hydroxypropylcellulose) (HPC) 96 % of control | dose: 200.0 mg/kg/injection, schedule: Q01DX001 (ip), vehicle: Klucel (hydroxypropylcellulose) (HPC) 100 % of control | dose: 400.0 mg/kg/injection, schedule: Q01DX001 (ip), vehicle: Klucel (hydroxypropylcellulose) (HPC) 100 % of control

COc1cccc(CCNC(=O)CC#N)c1OC
inactive: [4] 90 % of control | [11] 100 % of control | [5] 95 % of control | [12] 102 % of control | dose: 400.0 mg/kg/injection, schedule: Q04DX003 (ip), vehicle: Klucel (hydroxypropylcellulose) (HPC) 97 % of control

CC1=C2CCCC3(OCCO3)C2(C)CCC1=O (configuration not stated)
inactive: dose: 100.0 mg/kg/injection, schedule: Q04DX002 (ip), vehicle: other 98 % of control | dose: 200.0 mg/kg/injection, schedule: Q04DX002 (ip), vehicle: other 109 % of control | dose: 400.0 mg/kg/injection, schedule: Q04DX002 (ip), vehicle: other 102 % of control

CC1=CC(=N\S(=O)(=O)c2ccccc2)/C(=N/S(=O)(=O)c2ccccc2)C=C1
inactive: dose: 100.0 mg/kg/injection, schedule: Q04DX003 (ip), vehicle: saline with Tween-80 94 % of control | dose: 200.0 mg/kg/injection, schedule: Q04DX003 (ip), vehicle: saline with Tween-80 94 % of control | dose: 400.0 mg/kg/injection, schedule: Q04DX003 (ip), vehicle: saline with Tween-80 92 % of control

CC(=O)ON1C(=O)c2ccccc2C1=O
inactive: dose: 50.0 mg/kg/injection, schedule: Q01DX001 (ip), vehicle: saline 102 % of control | [1] 100 % of control | [2] 102 % of control

Cc1c(C)c(C)c([N+](=O)[O-])c([N+](=O)[O-])c1C
inactive: dose: 50.0 mg/kg/injection, schedule: Q01DX009 (ip), vehicle: saline with Tween-80 112 % of control | [13] 93 % of control | [14] 97 % of control | [15] 93 % of control | [16] 114 % of control

Nc1ncnc2c1ncn2C1OC(C(=O)NCC(=O)O)C(O)C1O (configuration not stated)
inactive: dose: 100.0 mg/kg/injection, schedule: Q01DX005 (ip), vehicle: saline 113 % of control | dose: 200.0 mg/kg/injection, schedule: Q01DX005 (ip), vehicle: saline 100 % of control | dose: 400.0 mg/kg/injection, schedule: Q01DX005 (ip), vehicle: saline 101 % of control

OCC1CC=CCC1 (configuration not stated)
inactive: [13] 105 % of control | [15] 106 % of control | dose: 400.0 mg/kg/injection, schedule: Q01DX009 (ip), vehicle: saline with Tween-80 117 % of control

CC(C)=CCC(CC=C(C)C)c1ccncc1 (tested in a mixture with another compound)
inactive: [1] 96 % of control | [2] 98 % of control

Nc1cc(Cl)c(Cl)c(Cl)c1
inactive: dose: 88.8 mg/kg/injection, schedule: Q01DX001 (ip), vehicle: carboxymethylcellulose (CMC) 97 % of control and 100 % of control | [8] 91 % of control | dose: 133.4 mg/kg/injection, schedule: Q01DX001 (ip), vehicle: carboxymethylcellulose (CMC) 94 % of control and 100 % of control | dose: 300.0 mg/kg/injection, schedule: Q01DX001 (ip), vehicle: carboxymethylcellulose (CMC) 97 % of control and 91 % of control | [10] 91 % of control

O=[N+]([O-])c1ccc(N2N=NC3CC/C(=C\c4cccc([N+](=O)[O-])c4)C32N2CCOCC2)cc1 (configuration not stated)
inactive: dose: 25.0 mg/kg/injection, schedule: Q04DX002 (ip), vehicle: Klucel (hydroxypropylcellulose) (HPC) 104 % of control | dose: 50.0 mg/kg/injection, schedule: Q04DX002 (ip), vehicle: Klucel (hydroxypropylcellulose) (HPC) 101 % of control | dose: 100.0 mg/kg/injection, schedule: Q04DX002 (ip), vehicle: Klucel (hydroxypropylcellulose) (HPC) 88 % of control

CCNc1nc(C(F)(F)F)nc2[nH]ncc12
inactive: dose: 100.0 mg/kg/injection, schedule: Q01DX001 (ip), vehicle: acetone 101 % of control | dose: 100.0 mg/kg/injection, schedule: Q04DX003 (ip), vehicle: saline 101 % of control | dose: 200.0 mg/kg/injection, schedule: Q01DX001 (ip), vehicle: acetone 90 % of control | dose: 200.0 mg/kg/injection, schedule: Q04DX003 (ip), vehicle: saline 95 % of control | dose: 400.0 mg/kg/injection, schedule: Q01DX001 (ip), vehicle: acetone 90 % of control | dose: 400.0 mg/kg/injection, schedule: Q04DX003 (ip), vehicle: saline 97 % of control

CC(C)=CCC/C(C)=C/CC/C(C)=C/CC(=O)OCC=C(C)C
inactive: [14] 89 % of control | [16] 99 % of control | dose: 400.0 mg/kg/injection, schedule: Q04DX002 (ip), vehicle: saline with Tween-80 99 % of control

O=[As](O)(O)c1ccc(Cl)cc1C(F)(F)F
inactive: dose: 6.25 mg/kg/injection, schedule: Q04DX003 (ip), vehicle: Klucel (hydroxypropylcellulose) (HPC) 97 % of control | dose: 12.5 mg/kg/injection, schedule: Q04DX003 (ip), vehicle: Klucel (hydroxypropylcellulose) (HPC) 100 % of control | dose: 25.0 mg/kg/injection, schedule: Q04DX003 (ip), vehicle: Klucel (hydroxypropylcellulose) (HPC) 101 % of control and 103 % of control | [11] 101 % of control | [12] 103 % of control

N#CCCc1c(-c2ccccc2)nc(N)[nH]c1=O
inactive: dose: 100.0 mg/kg/injection, schedule: Q04DX003 (ip), vehicle: carboxymethylcellulose (CMC) 92 % of control | dose: 200.0 mg/kg/injection, schedule: Q04DX003 (ip), vehicle: carboxymethylcellulose (CMC) 92 % of control | dose: 400.0 mg/kg/injection, schedule: Q04DX003 (ip), vehicle: carboxymethylcellulose (CMC) 87 % of control

Cc1ccccc1C(=O)c1ccccc1C(=O)c1ccccc1
inactive: [7] 98 % of control | [8] 88 % of control | [4] 97 % of control | [9] 93 % of control | [5] 95 % of control | [10] 101 % of control | [6] 97 % of control
